Where two headings read alike, the source gives them in different places.
Assay: long term formulation trials of natural stability and dispersion aids
Format: physicochemical
Excerpt: Additionally, popular formularies like lecithin and glycerin were trialed. […] Thus, Glycerin alone was not useful to the invention disclosed herein which requires higher loading rates to achieve improved efficacy and a simplified industrially scalable process.

| Molecule | stability of formulation in trials (used as stabilizing/dispersion aid in nano and micro-emulsion formulations, long term trials) | stability of formulation in trials |
| --- | --- | --- |
| OCC(O)CO [Glycerin] | very low stability unless used in very small quantities | – |
| pectin | – | high microbial activity |

Reference: patent publication US20250177299A1, “MOLECULAR COMPLEXING METHOD, FORMULATION AND MANUFACTURING FOR ENHANCED NUTRIENT DELIVERY” (Ingredient Fusion, LLC, priority 2021, published 2025)
